Experiments:
plants = settings: Ruhland et al. (2002); cited from earlier work
[1] = Hygroscopicity of solid L-glufosinate forms in contact with ambient air; assay type: physicochemical; settings: contact with ambient air in the laboratory; compared with non-crystalline forms
From the text: L-glufosinate produced in a stable solid form is highly desirable for commercial manufacture. Some forms of solid L-glufosinate are hygroscopic, and therefore extra measures must be taken to eliminate contact between these solid L-glufosinate forms and water vapor. […] Several crystalline forms of L-glufosinate are disclosed in WO 2019/018406, and two of these forms (indicated as “Form A” and “Form B”) have now been identified as monohydrate crystals of L-glufosinate ammonium.

[2] = Particle size measurement (Dv90, volumetric distribution); assay type: physicochemical
From the text: The size range of crystalline L-glufosinate ammonium monohydrate particles obtained by using the methods provided herein is convenient for use in formulations. In some embodiments, the crystals are mixed with water and other formulation ingredients to form an herbicidal product. In some embodiments, 90% of the crystalline L-glufosinate ammonium particles are less than about 350 microns as determined by volumetric distribution measurement basis (i.e., “Dv90”). For example, the Dv90 of the particles can be less than about 350 microns or less than about 300 microns or less than about 250 microns or less than about 200 microns or less than about 150 microns or less than about 125 microns or less than about 100 microns or less than about 75 microns or less than about 50 microns or less than about 25 microns. […]
L-glufosinate ammonium starting material (50 g, 77% total L-glufosinate ammonium, 7.3% ammonium glutamate) was added to 35.0 g of 45:55 (w:w) methanol:water. […] The crystals were analyzed by X-ray powder diffraction and the resulting pattern was consistent with that of L-glufosinate ammonium monohydrate Form B, however several peaks consistent with L-glufosinate ammonium monohydrate Form A were present.

[3] = tested on: glutamine synthetase enzyme in plants; settings: leads to plant death; cited from earlier work
[4] = DAAO enzyme kinetics assay (HRP/TBHBA/4-AAP dye, Michaelis Menten, Vmax); assay type: biochemical; settings: 30° C., 460 nm, measurement at 15 minutes, final DAAO 5 μg/mL, racemic glufosinate substrate, pH 8.0 potassium phosphate buffer
Procedure: The following dye stock solutions were prepared: a 20 mg/mL stock solution of 2,4,6-tribromo-3-hydroxybenzoic acid (TBHBA) in DMSO; and a 100 mg/mL stock solution of 4-aminoantipyrine (4-AAP) in water. The following enzyme stock solution was prepared: a 1 mg/mL stock solution of horseradish peroxide (HRP) type 6 in a pH 8.0 potassium phosphate buffer. The following substrate stock solution was prepared: varying concentrations of racemic glufosinate in a pH 8.0 potassium phosphate buffer such that the initial reaction concentrations of racemic glufosinate were 0, 1, 10, 100, 250, and 500 nM. DAAO enzymes were made in E. coli which were lysed and the cell free extracts freeze dried. Enzyme amounts in the cell free extracts were quantified using SDS-PAGE and staining by Coomassie Blue.
Mix A is a combination of the substrate and HRP enzyme. Solutions were prepared for each substrate concentration to be assayed using reaction buffer. The solutions were two times the final substrate concentration and 0.2 mg/mL for the HRP solution.
Mix B is a dye mixture. To 5 mL of reaction buffer was added 120 μL of TBHBA solution and 400 μL of 4-AAP solution.
Mix C is an enzyme mixture. A 0.02 mg/mL solution of DAAO in reaction buffer was prepared. […]
The enzyme kinetics were measured as described above, plotted on a Michaelis Menten graph, and used to calculate Vmax.

For `CP(=O)(O)CC[C@@H](N)C(=O)O` [D-glufosinate], the herbicidal activity (plants) is listed as “essentially no herbicidal activity”.

With `CP(=O)(O)CC[C@H](N)C(=O)O.N.O` [Form A, L-glufosinate ammonium monohydrate] the hygroscopicity [1] was “low hygroscopicity”.

With `CP(=O)(O)CC[C@H](N)C(=O)O.N.O` [L-glufosinate ammonium monohydrate] the Dv90 particle size ([2]; Example 9, crystallized with 0.4 M ammonium hydroxide) was 70.7 microns and the Dv90 particle size ([2]; Example 10, crystallized without ammonium hydroxide) was 102 microns.

In the case of `CP(=O)(O)CC[C@H](N)C(=O)O` [L-glufosinate], the “inhibition of glutamine synthetase enzyme” value [3] is listed as “inhibits”.

For `CP(=O)(O)CC[C@H](N)C(=O)O` [amorphous L-glufosinate solids, L-glufosinate], the hygroscopicity [1] was “particularly hygroscopic”.

In the case of `CP(=O)(O)CC[C@H](N)C(=O)O` [crystalline L-glufosinate P free acid, L-glufosinate P free acid], the hygroscopicity [1] is reported as “significantly lower”.

B1: Mut846: variant DAAO enzyme, sequence provided in SEQ ID NO: 2 (protein)
chain: MASPSNKQIVVLGAGVIGLTTAVKIQEQRGYQVTIIAEILPSDPKSIRYTSHWAGAHHVSLAGEDKLQARVDQETFGVMWEMSAPGGEAEGCFLRQKQVEYYCDKQADPHPLEHMPDFRRLDENSLIPNTVAGIGFTTLTIDTPIYLNYLLSRFLARGGAIVRGSVQHISQVVDGGARVFTGSKSAGVPVDAVIVCAGIGARFLGGVEDKDVYPIRGQTVLLRAPWIRFGRTMSSKDGLYTYIIPRRSGDVIVGGIKVPNDWYPTPRPETTQDILKRGLALCPELAPQSIRDQREPTVDDLRPLVIEEGCGLRPGRKGGIRLEVEWYAKTDGQAPKVPIVHNYGHGGAGFQASWGSASVALELLEKALAQARLAM
modifications: Rhodosporidium toruloides
With B1 the Vmax [4] was 5.54 µmol/min/mg.

Reference: patent US12234254B2, “Methods for producing crystalline L-glufosinate ammonium monohydrate” (BASF SE, priority 2019, dated 2025)
